Values belong to the compound of their own block, whether it stands above or below them.
Assays:
[1] = biological target: T1, CYP2C19 (Homo sapiens, UniProt P33261); assay: CYP-direct inhibition, CYP2C19; assay type: in vitro ADME
T1 construct: from tissue; host or cells: pooled human liver microsomes
Protocol: (§1) Many drugs inhibit cytochrome P450 enzymes to cause clinically significant changes in the pharmacokinetics of other drugs. In vitro cytochrome P450 inhibition, can provide crucial information in evaluating potential clinical drug-drug interactions and is useful for focusing in vivo tests to areas of concern. The cytochrome P450 inhibition assay was developed by preparing a working cocktail solution consisting of six probe substrates 10 μM ethoxy-resorufin (CYP1A2), 100 μM rosiglitazone (CYP2C8), 50 μM diclofenac (CYP2C9), 300 μM S-mephenytoin (CYP2C19), 50 μM dextromethorphan (CYP2D6), and 20 μM midazolam (CYP3A4). A mixture solution consists of 140 uL of 0.286 mg/mL of pooled human liver microsome working solution and 20 uL working solutions of test articles, standard control inhibitors, or positive control placebo and 20 uL of substrate cocktail mixture working solution was prepared. The mixture solution was pre-warm in a gentle shaking bath at 37±2° C. for 5 minutes. The enzymatic reaction started by adding 20 uL of NRS working solution to the mixture solution and incubated for 10 minutes at 37±2° C. To stop the reaction, an addition of 400 μL cold stop solution (acetonitrile containing 50 ng/mL Tolbutamide as an internal standard (I.Std.) was added to the mixture solution. The final concentration of test article, inhibitors, substrates, and cofactors are noted in Table 0.1 below. Two individual samples were prepared for each test compound. The extracted samples were vortexed and then centrifuged at 4500 rpm for 7 minutes using Eppendorf Centrifuge 5910R. 200 uL of supernatant was diluting with 200 uL of 50% Methanol into 96-DW plate for LC/MS/MS analysis
(§2) Concentration-response plots are used to determine the effects of an inhibitor on an enzymatic reaction. A typical concentration-response plot provides fractional activity (Y axis) is plotted as a function of log inhibitor concentration (X axis). The data are fitted using a standard Sigmoidal dose-response equation which is also called a […] logistic equation. The concentration of compound that results in 50% inhibition of maximal activity is termed as the IC50 (inhibitor concentration yielding 50% inhibition). IC50 value is calculated using Prism GraphPad software, version 9. […].
(§3) Cytochrome P450 inhibition of a drug is a key factor in determining pharmacokinetic drug-drug interactions. The objective of this study was to evaluate the inhibition potential of G9a inhibitors on six (6) major human cytochrome P450 enzymes, including CYP1A2, CYP2C8, CYP2C9, CYP2C19, CYP2D6, and CYP3A4. Inhibition was determined by using a substrate cocktail and analyzing the rate of specific metabolites formation. The cytochrome P450 inhibition assay was developed using a cocktail consisting of six (6) probe substrates ethoxy-resorufin (CYP1A2), rosiglitazone (CYP2C8), diclofenac (CYP2C9), S-mephenytoin (CYP2C19), dextromethorphan (CYP2D6), and midazolam (CYP3A4). The cocktail was incubated in human liver microsome with NADPH regenerating system (NRS) in a shaking bath at 37±2° C. The formation of specific metabolites was monitored by LC/MS/MS. Test compound was added to the cocktail-liver microsome mixture at varying concentrations and its effect on cytochrome P450 activity was determined by analyzing the rate of specific metabolite formation. The percent inhibition was calculated and plotted with reference to the concentration, and the IC50 value for inhibition was derived by fitting the data with a using log(inhibitor) vs. normalized response with variable slope least squares fit by Graphpad Prism® software. […].

[2] = biological target: T2, CYP1A2 (Homo sapiens, UniProt P05177); assay: CYP-direct inhibition, CYP1A2; assay type: in vitro ADME; settings: human liver microsome; substrate ethoxy-resorufin; read-out: IC50 CYP-1A2
T2 construct: from tissue; host or cells: pooled human liver microsomes
T2 sequence (P05177 1-516): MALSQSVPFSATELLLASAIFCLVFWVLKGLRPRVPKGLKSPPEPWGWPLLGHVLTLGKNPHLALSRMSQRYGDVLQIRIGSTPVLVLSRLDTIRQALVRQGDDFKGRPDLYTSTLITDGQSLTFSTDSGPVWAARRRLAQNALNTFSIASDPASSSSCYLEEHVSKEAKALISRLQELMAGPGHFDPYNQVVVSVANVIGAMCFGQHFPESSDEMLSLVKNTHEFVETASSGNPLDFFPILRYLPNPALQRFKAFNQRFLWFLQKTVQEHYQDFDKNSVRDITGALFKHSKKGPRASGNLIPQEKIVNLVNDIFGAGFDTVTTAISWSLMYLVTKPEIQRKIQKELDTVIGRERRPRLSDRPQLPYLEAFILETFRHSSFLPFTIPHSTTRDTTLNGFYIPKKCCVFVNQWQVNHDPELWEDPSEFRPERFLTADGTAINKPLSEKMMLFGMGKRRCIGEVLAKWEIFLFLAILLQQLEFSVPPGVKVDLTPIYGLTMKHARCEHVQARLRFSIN
Protocol: as §1, §2, §3

[3] = biological target: T3, CYP2C9 (Homo sapiens, UniProt P11712); assay: CYP-direct inhibition, CYP2C9; assay type: in vitro ADME
T3 construct: from tissue; host or cells: pooled human liver microsomes
Protocol: as §1, §2, §3

[4] = biological target: T4, CYP2D6 (Homo sapiens, UniProt P10635); assay: CYP-direct inhibition, CYP2D6; assay type: in vitro ADME; settings: human liver microsome; substrate dextromethorphan; read-out: IC50 CYP-2D6
T4 construct: from tissue; host or cells: pooled human liver microsomes
Protocol: as §1, §2, §3

[5] = PAMPA permeability; settings: PAMPA, 5 hours at RT
Description: Parallel artificial membrane permeability (PAMPA) assay is a non-cell based assay designed to predict in vivo biological membrane permeability of drugs in early stage of drug discovery. […] The Corning Gentest Pre-coated PAMPA plate system was designed by 96-well insert system with a 0.45 μm PVDF (polyvinylidene fluoride) filter plate which has been pre-coated with structured tri-layers of phospholipids (lipid/oil/lipid) and a matched receiver microplate.
Donor solutions of test compounds (300 μL, 20 μM in PBS/MeOH 90:10) were added to each well of the donor plate. 200 μL of PBS/MeOH 90:10 was added to each well of the acceptor plate. The acceptor plate was coupled with the donor plate and incubated for 5 hours at room temperature (RT) without agitation. In each plate, compounds were tested in triplicate. At the end of the incubation, drug concentration in the initial donor solution, acceptor and the donor wells were determined using LC/MS/MS. A five (5) points standard curve from 0.1 to 1000 nM for each test compound were prepared. Analyte samples were diluted to within standard curve concentration with ACN/H2O 50:50 prior analysis.
All samples were analyzed by electrospray ionization (ESI) liquid chromatograph/mass spectrometry (LC/MS) system utilizing Sciex 5500 quadropule ion trap (Qtrap) mass spectrometry with Shidmazu Nexera X2 UHPLC. The LC-MS/MS instrument monitored each of the test compound in the study based of their respective mass-to-charge (m/z) transitions and MS parameters. Chromatographic separation was achieved on Phenomenex Luna C18 column (50×2.0 mm, 3 μm particle size) by using a gradient elution: mobile phase A contains 0.1% formic acid in water and mobile phase B contains 0.1% formic acid in acetonitrile; A/B (99:1) from 0 to 1 minutes; to A/B (1:99) from 1 to 4 minutes; A/B (1:99) from 4 to 8 minutes; to A/B (99:1) from 8 to 8.20 minutes; A/B (99:1) from 8.2 to 9 minutes. The flow rate was 0.4 mL/min and the column temperature was maintained at 35° C. and autosampler temperature at 4° C. For detection, the electrospray ionization operated in the positive mode using multiple reaction monitoring (MRM).
Data acquisition, and peak integrations were obtained by Analyst® Version 1.7.1 (Sciex) operating with Windows® (Microsoft). The standard curve regressions and sample concentrations were generated and calculated by Analyst®. Concentrations in the sample solutions were determined based on the measured peak area ratios from the response of the analyte to the internal standard with reference to the standard calibration curve. All sample calculations were calculated using a linear regression with 1/x^2 weighting (where x is the concentration of given calibration standard level).
Permeability of the test compounds was calculated using the following formula:
The permeability of compounds was evaluated with the parallel artificial membrane permeation assay (PAMPA) as an in vivo model of passive diffusion across a porous filter coated with a lipid/oil/lipid tri-layer artificial membrane. […] Donor solutions of test compounds (300 μL, 20 μM in PBS/MeOH 90:10) were added to each well of the donor plate. 200 μL of PBS/MeOH 90:10 was added to each well of the acceptor plate. The acceptor plate was coupled with the donor plate and incubated for 5 hours at room temperature (RT) without agitation. In each plate, compounds were tested in triplicate. At the end of the incubation, drug concentration in the initial donor solution, acceptor and the donor wells were determined using LC/MS/MS. Permeability of test compounds was calculated based on the formula described in the General Procedures above. The PAMPA permeability classification criteria are categorized into three (3) classes with a high (Pe≥1.5×10−6 cm/s), intermediate (5.5×10−8<Pe<1.5×10−6 cm/s), and low (Pe<5.5×10−8 cm/s) permeability.

[6] = PAMPA permeability Classification, 20 μM donor
[7] = Permeability, Pe, 20 μM donor in PBS/MeOH 90:10

T3 sequence (P11712 whole entry): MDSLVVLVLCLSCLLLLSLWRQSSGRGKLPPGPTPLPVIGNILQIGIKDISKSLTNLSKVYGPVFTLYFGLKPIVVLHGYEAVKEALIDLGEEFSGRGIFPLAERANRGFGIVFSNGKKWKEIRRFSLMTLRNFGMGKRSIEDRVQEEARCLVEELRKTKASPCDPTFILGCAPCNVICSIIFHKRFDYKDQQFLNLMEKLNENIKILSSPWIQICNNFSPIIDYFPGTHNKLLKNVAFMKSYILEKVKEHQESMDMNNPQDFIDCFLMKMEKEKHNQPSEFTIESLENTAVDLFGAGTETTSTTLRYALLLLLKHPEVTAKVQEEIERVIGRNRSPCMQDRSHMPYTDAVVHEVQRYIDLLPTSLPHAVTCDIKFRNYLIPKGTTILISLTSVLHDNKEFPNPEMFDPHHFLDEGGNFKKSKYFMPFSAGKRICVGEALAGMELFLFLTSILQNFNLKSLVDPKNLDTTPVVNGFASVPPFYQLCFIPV
T4 sequence (P10635 whole entry): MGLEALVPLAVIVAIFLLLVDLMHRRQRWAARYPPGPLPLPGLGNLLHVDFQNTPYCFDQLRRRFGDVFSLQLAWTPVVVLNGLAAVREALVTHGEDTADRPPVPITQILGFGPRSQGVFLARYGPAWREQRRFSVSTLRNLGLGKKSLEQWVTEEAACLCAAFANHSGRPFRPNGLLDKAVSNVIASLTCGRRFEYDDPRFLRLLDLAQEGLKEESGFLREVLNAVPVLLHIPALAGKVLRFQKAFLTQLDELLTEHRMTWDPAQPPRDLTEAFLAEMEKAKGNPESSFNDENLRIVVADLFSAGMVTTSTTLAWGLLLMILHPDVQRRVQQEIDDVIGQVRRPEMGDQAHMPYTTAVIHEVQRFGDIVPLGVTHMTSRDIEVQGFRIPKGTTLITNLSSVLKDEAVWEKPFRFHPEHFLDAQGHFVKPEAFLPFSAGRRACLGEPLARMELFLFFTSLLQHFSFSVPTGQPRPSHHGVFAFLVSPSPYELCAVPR
T1 sequence (P33261 whole entry): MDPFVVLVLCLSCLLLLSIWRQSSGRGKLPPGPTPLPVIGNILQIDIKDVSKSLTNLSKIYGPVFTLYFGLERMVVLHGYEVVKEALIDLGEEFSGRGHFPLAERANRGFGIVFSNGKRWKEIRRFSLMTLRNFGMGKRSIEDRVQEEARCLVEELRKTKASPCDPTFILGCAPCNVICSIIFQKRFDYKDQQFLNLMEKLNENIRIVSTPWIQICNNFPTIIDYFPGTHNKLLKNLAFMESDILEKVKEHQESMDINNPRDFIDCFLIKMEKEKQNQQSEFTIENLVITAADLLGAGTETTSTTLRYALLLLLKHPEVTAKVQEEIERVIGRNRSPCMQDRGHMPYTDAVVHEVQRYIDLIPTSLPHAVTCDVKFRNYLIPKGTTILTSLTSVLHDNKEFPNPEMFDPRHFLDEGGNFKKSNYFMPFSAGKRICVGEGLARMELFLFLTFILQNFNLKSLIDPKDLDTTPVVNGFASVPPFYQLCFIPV

SMILES: COc1cc2c(NC3CCS(=O)(=O)CC3)nc(N3CCCN(C)CC3)nc2cc1OCCCN1CCCC1 [Compound 110, 4-((6-methoxy-2-(4-methyl-1,4-diazepan-1-yl)-7-(3-(pyrrolidin-1-yl)propoxy)quinazolin-4-yl)amino)tetrahydro-2H-thiopyran 1,1-dioxide]
IC50 [1]: > 100 µM
IC50 [2]: > 100 µM
IC50 [3]: > 100 µM
IC50 [4]: > 100 µM
Papp at 5 h, 20 μM [5, 6]: < 0.055 ×10⁻⁶ cm/s
Papp at 5 h, 20 μM [5, 7]: 0.00676 ×10⁻⁶ cm/s

SMILES: COc1cc2c(Nc3ccncc3)nc(-n3ccnc3)nc2cc1OCCCN1CCCC1 [Compound 130, 2-(1H-imidazol-1-yl)-6-methoxy-N-(pyridin-4-yl)-7-(3-(pyrrolidin-1-yl)propoxy)quinazolin-4-amine]
IC50 [1]: 75.7 µM
IC50 [2]: 10.4 µM
IC50 [3]: 65.5 µM
IC50 [4]: 4.88 µM
Papp at 5 h, 20 μM [5, 6]: < 0.055 ×10⁻⁶ cm/s
Papp at 5 h, 20 μM [5, 7]: 0.0129 ×10⁻⁶ cm/s

SMILES: COc1cc2c(N[C@H]3CCCNC3)nc(N3CCCC3)nc2cc1OCCCN1CCCC1 [Compound 158, (S)-6-methoxy-N-(piperidin-3-yl)-2-(pyrrolidin-1-yl)-7-(3-(pyrrolidin-1-yl)propoxy)quinazolin-4-amine]
IC50 [1]: > 100 µM
IC50 [2]: > 100 µM
IC50 [3]: > 100 µM
IC50 [4]: 65.6 µM
Papp at 5 h, 20 μM [5, 6]: < 0.055 ×10⁻⁶ cm/s
Papp at 5 h, 20 μM [5, 7]: 0.00453 ×10⁻⁶ cm/s

Further lines, results first:

IC50 [1]: > 100 µM
IC50 [2]: > 100 µM
IC50 [3]: > 100 µM
IC50 [4]: 4.72 µM
Papp at 5 h, 20 μM [5, 6]: < 0.055 ×10⁻⁶ cm/s
Papp at 5 h, 20 μM [5, 7]: 0.00225 ×10⁻⁶ cm/s
SMILES: COc1cc2c(NC3CCN(C(C)C)CC3)nc(-n3ccnc3)nc2cc1OCCCN1CCCC1 [Compound 156, 2-(1H-imidazol-1-yl)-N-(1-isopropylpiperidin-4-yl)-6-methoxy-7-(3-(pyrrolidin-1-yl)propoxy)quinazolin-4-amine]

IC50 [1]: > 100 µM
IC50 [2]: > 100 µM
IC50 [3]: > 100 µM
IC50 [4]: 64.9 µM
Papp at 5 h, 20 μM [5, 6]: < 0.055 ×10⁻⁶ cm/s
Papp at 5 h, 20 μM [5, 7]: 0.000555 ×10⁻⁶ cm/s
SMILES: COc1cc2c(NC3CCN(C(C)C)CC3)nc(-n3cccn3)nc2cc1OCCCN1CCCC1 [Compound 157, N-(1-isopropylpiperidin-4-yl)-6-methoxy-2-(1H-pyrazol-1-yl)-7-(3-(pyrrolidin-1-yl)propoxy)quinazolin-4-amine]

IC50 [1]: > 100 µM
IC50 [2]: > 100 µM
IC50 [3]: > 100 µM
IC50 [4]: 50.9 µM
Papp at 5 h, 20 μM [5, 6]: < 0.055 ×10⁻⁶ cm/s
Papp at 5 h, 20 μM [5, 7]: 0.0227 ×10⁻⁶ cm/s
SMILES: COc1cc2c(N[C@@H]3CCCNC3)nc(N3CCCC3)nc2cc1OCCCN1CCCC1 [Compound 159, (R)-6-methoxy-N-(piperidin-3-yl)-2-(pyrrolidin-1-yl)-7-(3-(pyrrolidin-1-yl)propoxy)quinazolin-4-amine]

IC50 [1]: > 100 µM
IC50 [2]: > 100 µM
IC50 [3]: > 100 µM
IC50 [4]: 24.8 µM
Papp at 5 h, 20 μM [5, 6]: < 0.055 ×10⁻⁶ cm/s
Papp at 5 h, 20 μM [5, 7]: 0.0476 ×10⁻⁶ cm/s
SMILES: COc1cc2c(NC3CCOCC3)nc(N3CCCC3)nc2cc1OCCCN1CCCC1 [Compound 164, 6-methoxy-2-(pyrrolidin-1-yl)-7-(3-(pyrrolidin-1-yl)propoxy)-N-(tetrahydro-2H-pyran-4-yl)quinazolin-4-amine]
